{"source": "patent US12662491B2", "about": "(Redona Therapeutics, Inc., priority 2020, dated 2026)"}
{"target": "T1, Zcchc11 enzyme (Homo sapiens, UniProt Q5TAX3)", "T1 construct": "made in house; host or cells: HEK293 cells (Zcchc11); E. coli Rosetta II (LIN28A)", "T1 sequence (Q5TAX3 212-1420)": "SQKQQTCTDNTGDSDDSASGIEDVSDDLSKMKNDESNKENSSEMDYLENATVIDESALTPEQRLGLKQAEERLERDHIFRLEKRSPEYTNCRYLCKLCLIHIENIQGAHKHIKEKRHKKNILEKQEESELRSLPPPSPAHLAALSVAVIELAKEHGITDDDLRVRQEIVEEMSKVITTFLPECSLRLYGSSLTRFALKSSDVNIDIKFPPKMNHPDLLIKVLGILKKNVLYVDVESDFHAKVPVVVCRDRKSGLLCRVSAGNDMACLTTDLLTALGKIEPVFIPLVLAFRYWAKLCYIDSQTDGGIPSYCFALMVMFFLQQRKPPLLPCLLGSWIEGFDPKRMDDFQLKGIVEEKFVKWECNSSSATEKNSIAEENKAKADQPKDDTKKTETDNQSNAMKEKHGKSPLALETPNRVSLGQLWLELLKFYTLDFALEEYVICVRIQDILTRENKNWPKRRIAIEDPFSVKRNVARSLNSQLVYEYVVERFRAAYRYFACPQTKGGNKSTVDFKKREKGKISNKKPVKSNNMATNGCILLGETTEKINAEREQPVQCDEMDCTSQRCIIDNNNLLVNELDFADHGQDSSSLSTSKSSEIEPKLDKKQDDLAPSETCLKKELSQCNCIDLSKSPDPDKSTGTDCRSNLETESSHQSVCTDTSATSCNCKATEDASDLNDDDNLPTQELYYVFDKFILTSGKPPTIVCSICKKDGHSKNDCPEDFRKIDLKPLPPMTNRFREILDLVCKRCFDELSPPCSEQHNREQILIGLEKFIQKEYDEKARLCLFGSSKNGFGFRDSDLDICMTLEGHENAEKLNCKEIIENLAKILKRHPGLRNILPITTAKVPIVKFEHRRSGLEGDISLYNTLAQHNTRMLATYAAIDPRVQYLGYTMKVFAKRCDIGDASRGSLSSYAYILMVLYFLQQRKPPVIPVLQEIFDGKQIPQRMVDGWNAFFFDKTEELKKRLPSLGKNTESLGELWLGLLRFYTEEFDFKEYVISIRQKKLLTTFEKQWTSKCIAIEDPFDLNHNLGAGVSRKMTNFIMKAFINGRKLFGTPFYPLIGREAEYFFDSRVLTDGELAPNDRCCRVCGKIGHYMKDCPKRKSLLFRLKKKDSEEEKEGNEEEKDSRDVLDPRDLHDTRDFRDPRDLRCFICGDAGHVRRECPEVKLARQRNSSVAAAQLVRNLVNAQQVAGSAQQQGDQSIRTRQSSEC", "experiment": "TUTase assay (Zcchc11 assay, Lin28a-dependent polyuridylation of pre-let-7)", "assay_type": "biochemical", "settings": "Lin28a-dependent Zcchc11 (Z11) TUTase assay; read-out: Potency Lin28a-dep Z11 IC50", "how_it_was_run": "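LIN28A (10 nM) in pH 7.3 HEPES/KCl/MgCl2/DTT buffer was mixed with serially diluted compound, then 0.2 nM truncated human Zcchc11 and 2 nM labeled pre-let-7 were added for 30 min at room temperature. UTP (5 uM) and quench probe (4 nM) then started the reaction. Linear early rates gave IC50 values.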", "units": {"IC50": "nM"}}
{"smiles": "O=C(O)c1cn(-c2cccnn2)c2cc(N3CCC[C@@H]3COc3ncccc3Cl)c(Cl)cc2c1=O", "note": "[Example 498, (R)-6-chloro-7-(2-(((3-chloropyridin-2-yl)oxy)methyl)pyrrolidin-1-yl)-4-oxo-1-(pyridazin-3-yl)-1,4-dihydroquinoline-3-carboxylic acid]", "IC50": "≤ 1000"}
{"smiles": "O=C(O)c1cn(-c2ccccn2)c2cc(N3CCC[C@@H]3COc3ncccc3Cl)c(Cl)cc2c1=O", "note": "[Example 499, (R)-6-chloro-7-(2-(((3-chloropyridin-2-yl)oxy)methyl)pyrrolidin-1-yl)-4-oxo-1-(pyridin-2-yl)-1,4-dihydroquinoline-3-carboxylic acid]", "IC50": "≤ 1000"}
{"smiles": "O=C(O)c1cn(-c2ncccn2)c2cc(N3CCC[C@@H]3COc3ncccc3Cl)c(Cl)cc2c1=O", "note": "[Example 500, (R)-6-chloro-7-(2-(((3-chloropyridin-2-yl)oxy)methyl)pyrrolidin-1-yl)-4-oxo-1-(pyrimidin-2-yl)-1,4-dihydroquinoline-3-carboxylic acid]", "IC50": "≤ 1000"}
{"smiles": "Cn1ccnc1OC[C@H]1CCCN1c1cc2c(cc1Cl)c(=O)c(C(=O)O)cn2-c1ccc(N2CCC2)nc1", "note": "[Example 501, (R)-1-(6-(azetidin-1-yl)pyridin-3-yl)-6-chloro-7-(2-(((1-methyl-1H-imidazol-2-yl)oxy)methyl)pyrrolidin-1-yl)-4-oxo-1,4-dihydroquinoline-3-carboxylic acid]", "IC50": "≤ 1000"}
{"smiles": "CNCCN1CCC(n2cc(C(=O)O)c(=O)c3cc(Cl)c(N4CCC[C@@H]4COc4ncccc4Cl)cc32)CC1", "note": "[Example 502, (R)-6-chloro-7-(2-(((3-chloropyridin-2-yl)oxy)methyl)pyrrolidin-1-yl)-1-(1-(2-(methyl-amino)ethyl)piperidin-4-yl)-4-oxo-1,4-dihydroquinoline-3-carboxylic acid]", "IC50": "1000 to 10000"}
{"smiles": "O=C(O)c1cn(-c2cnc(OCc3ccccc3)cn2)c2cc(N3CCC[C@@H]3COc3ncccc3Cl)c(Cl)cc2c1=O", "note": "[Example 503, (R)-1-(5-(benzyloxy)pyrazin-2-yl)-6-chloro-7-(2-(((3-chloropyridin-2-yl)oxy)methyl)pyrrolidin-1-yl)-4-oxo-1,4-dihydroquinoline-3-carboxylic acid]", "IC50": "1000 to 10000"}
{"smiles": "O=C(O)c1cn(-c2ccnnc2)c2cc(N3CCC[C@@H]3COc3ncccc3Cl)c(Cl)cc2c1=O", "note": "[Example 504, 6-chloro-7-[(2R)-2-{[(3-chloropyridin-2-yl)oxy]methyl}pyrrolidin-1-yl]-4-oxo-1-(pyridazin-4-yl)-1,4-dihydroquinoline-3-carboxylic acid]", "IC50": "≤ 1000"}
{"smiles": "O=C(O)c1cn(-c2cc3cc[nH]c3cc2F)c2cc(N3CCC[C@@H]3COc3ncccc3Cl)c(Cl)cc2c1=O", "note": "[Example 505, (R)-6-chloro-7-(2-(((3-chloropyridin-2-yl)oxy)methyl)pyrrolidin-1-yl)-1-(6-fluoro-1H-indol-5-yl)-4-oxo-1,4-dihydroquinoline-3-carboxylic acid]", "IC50": "≤ 1000"}
{"smiles": "CNc1cnc(-n2cc(C(=O)O)c(=O)c3cc(Cl)c(N4CCC[C@@H]4COc4ncccc4Cl)cc32)cn1", "note": "[Example 506, (R)-6-chloro-7-(2-(((3-chloropyridin-2-yl)oxy)methyl)pyrrolidin-1-yl)-1-(5-(methylamino)pyrazin-2-yl)-4-oxo-1,4-dihydroquinoline-3-carboxylic acid]", "IC50": "≤ 1000"}
{"smiles": "O=C(O)c1cn(-c2ccc(N3CC(N4CCC4)C3)nc2)c2cc(N3CCC[C@@H]3COc3ncccc3Cl)c(Cl)cc2c1=O", "note": "[Example 507, (R)-1-(6-([1,3′-biazetidin]-1′-yl)pyridin-3-yl)-6-chloro-7-(2-(((3-chloropyridin-2-yl)oxy)methyl)pyrrolidin-1-yl)-4-oxo-1,4-dihydroquinoline-3-carboxylic acid]", "IC50": "≤ 1000"}
{"smiles": "CN1CCn2nc(-n3cc(C(=O)O)c(=O)c4cc(Cl)c(N5CCC[C@@H]5COc5ncccc5Cl)cc43)cc2C1", "note": "[Example 508, (R)-6-chloro-7-(2-(((3-chloropyridin-2-yl)oxy)methyl)pyrrolidin-1-yl)-1-(5-methyl-4,5,6,7-tetrahydropyrazolo [1,5-a]pyrazin-2-yl)-4-oxo-1,4-dihydroquinoline-3-carboxylic acid]", "IC50": "≤ 1000"}
{"smiles": "Nc1ccc(-n2cc(C(=O)O)c(=O)c3cc(Br)c(N4CCC[C@@H]4COc4ncccc4Cl)cc32)cn1", "note": "[Example 509, 1-(6-aminopyridin-3-yl)-6-bromo-7-[(2R)-2-{[(3-chloropyridin-2-yl)oxy]methyl}pyrrolidin-1-yl]-4-oxo-1,4-dihydroquinoline-3-carboxylic acid]", "IC50": "≤ 1000"}
{"smiles": "CN(C)C1CN(c2ccc(-n3cc(C(=O)O)c(=O)c4cc(F)c(N5CCC[C@@H]5COc5ncccc5Cl)cc43)cn2)C1", "note": "[Example 510, (R)-7-(2-(((3-chloropyridin-2-yl)oxy)methyl)pyrrolidin-1-yl)-1-(6-(3-(dimethylamino)azetidin-1-yl)pyridin-3-yl)-6-fluoro-4-oxo-1,4-dihydroquinoline-3-carboxylic acid]", "IC50": "≤ 1000"}
{"smiles": "O=C(O)c1cn(-c2cnccn2)c2cc(N3CCC[C@@H]3COc3ncccc3Cl)c(Br)cc2c1=O", "note": "[Example 511, (R)-6-bromo-7-(2-(((3-chloropyridin-2-yl)oxy)methyl)pyrrolidin-1-yl)-4-oxo-1-(pyrazin-2-yl)-1,4-dihydroquinoline-3-carboxylic acid]", "IC50": "≤ 1000"}
{"smiles": "COc1cc2c(=O)c(C(=O)O)cn(-c3cnccn3)c2cc1N1CCC[C@@H]1COc1ncccc1Cl", "note": "[Example 512, (R)-7-(2-(((3-chloropyridin-2-yl)oxy)methyl)pyrrolidin-1-yl)-6-methoxy-4-oxo-1-(pyrazin-2-yl)-1,4-dihydroquinoline-3-carboxylic acid]", "IC50": "> 50000"}
{"smiles": "N#Cc1cc2c(=O)c(C(=O)O)cn(-c3ccc(N)nc3)c2cc1N1CCC[C@@H]1COc1ncccc1Cl", "note": "[Example 513, (R)-1-(6-aminopyridin-3-yl)-7-(2-(((3-chloropyridin-2-yl)oxy)methyl)pyrrolidin-1-yl)-6-cyano-4-oxo-1,4-dihydroquinoline-3-carboxylic acid]", "IC50": "≤ 1000"}
{"smiles": "O=C(O)c1cn(-c2cnn3c2CNCC3)c2cc(N3CCC[C@@H]3COc3ncccc3Cl)c(Cl)cc2c1=O", "note": "[Example 514, (R)-6-chloro-7-(2-(((3-chloropyridin-2-yl)oxy)methyl)pyrrolidin-1-yl)-4-oxo-1-(4,5,6,7-tetrahydropyrazolo [1,5-a]pyrazin-3-yl)-1,4-dihydroquinoline-3-carboxylic acid]", "IC50": "≤ 1000"}
{"smiles": "O=C(O)c1cn(-c2cc3n(n2)CCNC3)c2cc(N3CCC[C@@H]3COc3ncccc3Cl)c(Cl)cc2c1=O", "note": "[Example 515, (R)-6-chloro-7-(2-(((3-chloropyridin-2-yl)oxy)methyl)pyrrolidin-1-yl)-4-oxo-1-(4,5,6,7-tetrahydropyrazolo [1,5-a]pyrazin-2-yl)-1,4-dihydroquinoline-3-carboxylic acid]", "IC50": "≤ 1000"}
{"smiles": "O=C(O)c1cn(-c2ccc(N3CCC3)nc2)c2cc(N3CCC[C@H]3COc3ncccc3Cl)c(Cl)cc2c1=O", "note": "[Example 516, (S)-1-(6-(azetidin-1-yl)pyridin-3-yl)-6-chloro-7-(2-(((3-chloropyridin-2-yl)oxy)methyl)pyrrolidin-1-yl)-4-oxo-1,4-dihydroquinoline-3-carboxylic acid]", "IC50": "≤ 1000"}
{"smiles": "CN(C)C1CN(c2ccc(-n3cc(C(=O)O)c(=O)c4cc(Cl)c(N5CCC[C@H]5COc5ncccc5Cl)cc43)cn2)C1", "note": "[Example 517, (S)-6-chloro-7-(2-(((3-chloropyridin-2-yl)oxy)methyl)pyrrolidin-1-yl)-1-(6-(3-(dimethylamino)azetidin-1-yl)pyridin-3-yl)-4-oxo-1,4-dihydroquinoline-3-carboxylic acid]", "IC50": "≤ 1000"}
{"smiles": "Nc1ccc(-n2cc(C(=O)O)c(=O)c3cc(Cl)c(N4CCC[C@@H]4COc4ncccc4Cl)cc32)c(F)n1", "note": "[Example 518, (R)-1-(6-amino-2-fluoropyridin-3-yl)-6-chloro-7-(2-(((3-chloropyridin-2-yl)oxy)methyl)pyrrolidin-1-yl)-4-oxo-1,4-dihydroquinoline-3-carboxylic acid]", "IC50": "≤ 1000"}
